Data: patent US8545876B1, “Modified drugs for use in liposomal nanoparticles” (The University of British Columbia, priority 2008, dated 2013)
Values after ≈ are worked out from the molar mass of the structure shown.

Columns and labels:
[1] = cited from earlier work
[2] = Kinetic aqueous solubility of docetaxel derivatives in acetate buffer; details: for solubility: kinetic from dmso stock
Description: An aliquot was diluted 10-fold with 10 mM acetate buffer (pH 5) and the pH was checked and re-adjusted as necessary to reach pH 5. Alternatively, 10 mg of each compound was weighed into a glass vial, and 2 mL of 10 mM acetate buffer (pH 5) was added to the compound, followed by sonication of the suspension for minutes. The precipitate was then removed using Microcon MY100 filters (MW cut-off 100,000 Da) and the filtrate analyzed by UPLC-UV for drug content. The measured solubilities are kinetic solubilities determined under non-equilibrium conditions.

[3] = Chemical (hydrolytic) stability in buffered aqueous solutions; type: physicochemical; details: 24 hour incubation in pH 7.4 buffer, 37° C.
[4] = as above; type: physicochemical; details: 24 hour incubation in pH 4 buffer, 37° C.
Description: (§1) The chemical stability of the docetaxel derivatives was determined in aqueous solutions at different pH values and temperatures, and in biological media (mouse plasma). Aliquots of the docetaxel derivatives in acetonitrile were mixed with buffered citrate/HEPES (10 mM/10 mM) solutions at pH 4.0 and 7.5, or in mouse plasma in 1 mL glass HPLC sample vials sealed with Teflon-lined caps (final volume 0.25 ml, final docetaxel derivative concentration 50 µg/ml). Drug stability was determined 1, 4 and 24 hrs after incubation at 37° C. by UPLC-UV. At the indicated time points, a 3-fold excess of methanol/0.1% TFA was added to the sample. Citrate/HEPES buffered samples were analyzed by UHPLC as described above. For plasma samples, proteins precipitated by the addition of methanol/0.1% TFA pelleted by centrifugation at 14,000×g and supernatants were analyzed for the drug derivatives. Heparanized mouse plasma was diluted to 50% with 100 mM sodium-phosphate buffer to keep the pH constant throughout the experiment.
(§2) To be suitable for formulation in LN, derivatives must be stable at pH 4 (the pH present inside the LN carrier). In addition, prodrug derivatives should readily form the active drug under physiological conditions (e.g., at pH 7.4 and/or in the presence of endogenous enzymes) once released from the LN. […] TD1-3 and TD7 were selected for loading into LN and testing of such LN for drug release in vitro.

[5] = Stability in mouse plasma; type: in vitro ADME; details: 24 hour incubation in mouse plasma, 37° C.
Description: as §1, §2

[6] = test system: breast cancer cell line MDA435/LCC6; experiment: In vitro cytotoxicity, Alamar Blue assay; type: cell-based; details: Homo sapiens; MDA-MB-435/LCC6, 72-h drug exposure
Description: (§3) Anticancer activity was evaluated against a panel of 3 human cancer cell lines, including the ovarian cancer cell line ES-2, the prostate cancer cell line PC3 and the breast cancer cell line MDA435/LCC6 (BC Cancer Research Centre, Vancouver, BC) (Fields and Lancaster, Am. Biotechnol. Lab., 11:48-50 (1993); Nakayama et al., J. Immunol. Methods, 204:205-208 (1997)). Cytotoxicity was determined using the Alamar Blue assay after a 72-h drug exposure period. […] The plates were returned to the incubator for 4 h; sample fluorescence was determined at λex=530 nm and λem=590 nm. Viability was calculated according to: Cell viability (%)=(Fplus drug−Fbackground)/(Fminus drug−Fbackground)*100, where Fplus drug is the fluorescence reading in the presence of drug, Fminus drug the cell control in the absence of drug and Fbackground the background fluorescence (media alone).

[7] = test system: ovarian cancer cell line ES-2; experiment: In vitro cytotoxicity, Alamar Blue assay; type: cell-based; details: Homo sapiens; ES-2, 72-h drug exposure
Description: as §3

[8] = test system: prostate cancer cell line PC3; experiment: In vitro cytotoxicity, Alamar Blue assay; type: cell-based; details: Homo sapiens; PC-3, 72-h drug exposure
Description: as §3

[9] = In vitro release of docetaxel derivatives from LN in mouse plasma; type: in vitro ADME; details: 37° C., same prodrug-to-lipid ratio
Description: In vitro release of docetaxel derivatives from LN was assessed in mouse plasma. Drug retention was determined by comparison of the initial prodrug-to-lipid ratio with the prodrug-to-lipid ratios found at different time points. […] LN formulations were mixed with mouse plasma at a final lipid concentration of 0.75 mg/ml, followed by incubation at 37° C. At various time points, aliquots were taken and run over Sephadex G-50 spin columns to remove the unentrapped prodrug (Pick, Arch. Biochem. Biophys., 212:186-194 (1981)). The derivative and lipid concentrations in the eluates were determined by UHPLC and liquid scintillation counting, respectively.

[10] = 10 mM acetate buffer, pH 5, aqueous buffer
[11] = 10 mM acetate buffer with 10% (v/v) ethanol, pH 5, aqueous with cosolvent or surfactant or cyclodextrin

SMILES | Solubility in Water [1] | Prodrug levels (% remaining), pH 7.4 [3] [%] | Prodrug levels (% remaining), pH 4 [4] [%] | Prodrug levels (% remaining), Plasma [5] | other results
C[C@@H]1C[C@H]2[C@@H]3CCC4=CC(=O)C=C[C@]4(C)[C@@]3(F)[C@@H](O)C[C@]2(C)[C@@]1(O)C(=O)CO [Dexamethasone] | 89 µg/mL (≈ 227 µM) |  |  |  | 
CC(C)c1cccc(C(C)C)c1O [Propofol] | 124 µg/mL (≈ 696 µM) |  |  |  | 
CC(=O)O[C@@]12CO[C@@H]1C[C@H](O)[C@@]1(C)C(=O)[C@H](O)C3=C(C)[C@@H](OC(=O)[C@H](OC(=O)CCCN4CCOCC4)[C@@H](NC(=O)OC(C)(C)C)c4ccccc4)C[C@@](O)([C@@H](OC(=O)c4ccccc4)C12)C3(C)C (stereo partly drawn) [TD4, Morpholino butanoic acid ester] |  | 92 | 98 | 64% | solubility [2, 10]: 120 µg/mL (≈ 125 µM); Solub. in 10 mM acetate pH 5 ([2]; pH 5, no ethanol, kinetic solubility): extremely low solubility
CC(=O)O[C@@]12CO[C@@H]1C[C@H](O)[C@@]1(C)C(=O)[C@H](O)C3=C(C)[C@@H](OC(=O)[C@H](OC(=O)CCN4CCOCC4)[C@@H](NC(=O)OC(C)(C)C)c4ccccc4)C[C@@](O)([C@@H](OC(=O)c4ccccc4)C12)C3(C)C (stereo partly drawn) [TD6, Morpholino propionic acid ester] |  | 18 | 68 | 0% | solubility [2, 11]: 1500 µg/mL (≈ 1580 µM); solubility [2, 10]: 480 µg/mL (≈ 506 µM)
CCCCC(=O)OCC(=O)[C@]1(O)Cc2c(O)c3c(c(O)c2[C@@H](O[C@H]2C[C@H](NC(=O)C(F)(F)F)[C@H](O)[C@H](C)O2)C1)C(=O)c1c(OC)cccc1C3=O [Valrubicin] | insoluble |  |  |  | 
C[C@H](/C=C/[C@H](C)C(C)(C)O)[C@H]1CC[C@H]2/C(=C/C=C3C[C@@H](O)C[C@H](O)C3)CCC[C@]12C [Paricalcitol] | 6.8 µg/mL (≈ 16.3 µM) |  |  |  | 
CC(=O)O[C@@]12CO[C@@H]1C[C@H](O)[C@@]1(C)C(=O)[C@H](O)C3=C(C)[C@@H](OC(=O)[C@H](OC(=O)CCCCN4CCCCC4)[C@@H](NC(=O)OC(C)(C)C)c4ccccc4)C[C@@](O)([C@@H](OC(=O)c4ccccc4)C12)C3(C)C (stereo partly drawn) [TD9, Piperidinyl pentanoic acid ester] |  | 65 | 99 | no effect | solubility ([2]; pH 5, aqueous buffer): 1000 µg/mL (≈ 1030 µM); solubility ([2]; pH 5, aqueous with cosolvent or surfactant or cyclodextrin): 2300 µg/mL (≈ 2360 µM); Prodrug levels (% remaining), Plasma ([5]; listed as TD-9): 60%
CC(=O)O[C@@]12CO[C@@H]1C[C@H](O)[C@@]1(C)C(=O)[C@H](O)C3=C(C)[C@@H](OC(=O)[C@H](O)[C@@H](NC(=O)OC(C)(C)C)c4ccccc4)C[C@@](O)([C@@H](OC(=O)c4ccccc4)[C@H]21)C3(C)C [Docetaxel, reference compound] |  |  |  |  | IC50 [6]: < 100 pM; IC50 [7]: 100 pM; IC50 [8]: 1000 pM
CC(C)CN(C[C@@H](O)[C@H](Cc1ccccc1)NC(=O)O[C@H]1CCOC1)S(=O)(=O)c1ccc(N)cc1 [Amprenavir] | 36 µg/mL (≈ 71.2 µM) |  |  |  | 
C[C@@H]1[C@H](O)[C@@H](C)/C=C/C=C/C=C/C=C/C=C/C=C/C=C/[C@H](O[C@@H]2O[C@H](C)[C@@H](O)[C@H](N)[C@@H]2O)C[C@@H]2O[C@](O)(C[C@@H](O)C[C@@H](O)[C@H](O)CC[C@@H](O)C[C@@H](O)CC(=O)O[C@H]1C)C[C@H](O)[C@H]2C(=O)O [Amphotericin B] | 750 µg/mL (≈ 812 µM) |  |  |  | 
C=CC[C@@H]1/C=C(\C)C[C@H](C)C[C@H](OC)[C@H]2O[C@@](O)(C(=O)C(=O)N3CCCC[C@H]3C(=O)O[C@H](/C(C)=C/[C@@H]3CC[C@@H](O)[C@H](OC)C3)[C@H](C)[C@@H](O)CC1=O)[C@H](C)C[C@@H]2OC [Tacrolimus] | insoluble |  |  |  | 
COc1c(C)c2c(c(O)c1C/C=C(\C)CCC(=O)O)C(=O)OC2 [Mycophenolic acid] | insoluble |  |  |  | 
CC(=O)O[C@@]12CO[C@@H]1C[C@H](O)[C@@]1(C)C(=O)[C@H](O)C3=C(C)[C@@H](OC(=O)[C@H](OC(=O)CCCN4CCCCC4)[C@@H](NC(=O)OC(C)(C)C)c4ccccc4)C[C@@](O)([C@@H](OC(=O)c4ccccc4)C12)C3(C)C (stereo partly drawn) [TD7, Piperidinyl butanoic acid ester] |  | 13 | 94 | 8% | solubility ([2]; pH 5, aqueous buffer): 1900 µg/mL (≈ 1980 µM); in vitro retention / release rate in DSPC/chol LN relative to TD1 [9]: released at a rate mirroring that of TD1
CC(=O)O[C@@]12CO[C@@H]1C[C@H](O)[C@@]1(C)C(=O)[C@H](O)C3=C(C)[C@@H](OC(=O)[C@H](OC(=O)CN4CCOCC4)[C@@H](NC(=O)OC(C)(C)C)c4ccccc4)C[C@@](O)([C@@H](OC(=O)c4ccccc4)C12)C3(C)C (stereo partly drawn) [TD5, Morpholino acetic acid ester] |  | 64 | 81 | 45% | solubility [2, 11]: 300 µg/mL (≈ 321 µM); solubility [2, 10]: 140 µg/mL (≈ 150 µM)
CO[C@H]1C[C@@H]2CC[C@@H](C)[C@@](O)(O2)C(=O)C(=O)N2CCCC[C@H]2C(=O)O[C@H]([C@H](C)C[C@@H]2CC[C@@H](O)[C@H](OC)C2)CC(=O)[C@H](C)/C=C(\C)[C@@H](O)[C@@H](OC)C(=O)[C@H](C)C[C@H](C)/C=C/C=C/C=C/1C [Sirolimus] | insoluble in water |  |  |  | 
C=C1/C(=C\C=C2/CCC[C@]3(C)[C@@H]([C@H](C)/C=C/[C@H](C)C(C)C)CC[C@@H]23)C[C@@H](O)C[C@@H]1O [Doxercalciferol] | relatively insoluble |  |  |  | 
CC(=O)O[C@@]12CO[C@@H]1C[C@H](OC(=O)CCCN1CCN(C)CC1)[C@@]1(C)C(=O)[C@H](O)C3=C(C)[C@@H](OC(=O)[C@H](O)[C@@H](NC(=O)OC(C)(C)C)c4ccccc4)C[C@@](O)([C@@H](OC(=O)c4ccccc4)C12)C3(C)C (stereo partly drawn) [TD10, 7-O-(N-methyl-piperazinylbutanoic acid ester)] |  |  |  |  | solubility ([2]; pH 5, aqueous buffer): 3000 µg/mL (≈ 3070 µM)
CC(=O)O[C@@]12CO[C@@H]1C[C@H](O)[C@@]1(C)C(=O)[C@H](O)C3=C(C)[C@@H](OC(=O)[C@H](OC(=O)CN4CCN(C)CC4)[C@@H](NC(=O)OC(C)(C)C)c4ccccc4)C[C@@](O)([C@@H](OC(=O)c4ccccc4)C12)C3(C)C (stereo partly drawn) [TD2, N-methyl-piperazinyl acetic acid ester] |  | 59 | 99 | 31% | solubility [2, 11]: 25000 µg/mL (≈ 26400 µM); solubility [2, 10]: 2000 µg/mL (≈ 2110 µM); in vitro retention / release rate in DSPC/chol LN relative to TD1 [9]: released at a slightly faster rate
C[C@]12C=CC(=O)C=C1CC[C@@H]1[C@@H]2C(=O)C[C@@]2(C)[C@H]1CC[C@]2(O)C(=O)CO [Prednisone] | 312 µg/mL (≈ 870 µM) |  |  |  | 
CC(=O)O[C@@]12CO[C@@H]1C[C@H](O)[C@@]1(C)C(=O)[C@H](O)C3=C(C)[C@@H](OC(=O)[C@H](OC(=O)CCCCN4CCN(C)CC4)[C@@H](NC(=O)OC(C)(C)C)c4ccccc4)C[C@@](O)([C@@H](OC(=O)c4ccccc4)C12)C3(C)C (stereo partly drawn) [TD3, N-methyl-piperazinyl pentanoic acid ester] |  | 69 | 99 | 29% | solubility [2, 11]: 4100 µg/mL (≈ 4140 µM); solubility [2, 10]: 2500 µg/mL (≈ 2520 µM); in vitro retention / release rate in DSPC/chol LN relative to TD1 [9]: released at a slightly faster rate
CC(=O)O[C@@]12CO[C@@H]1C[C@H](O)[C@@]1(C)C(=O)[C@H](O)C3=C(C)[C@@H](OC(=O)[C@H](OC(=O)CN4CCCCC4)[C@@H](NC(=O)OC(C)(C)C)c4ccccc4)C[C@@](O)([C@@H](OC(=O)c4ccccc4)C12)C3(C)C (stereo partly drawn) [TD8, Piperidinyl acetic acid ester] |  | 36 | 78 | 4% | solubility ([2]; pH 5, aqueous buffer): 500 µg/mL (≈ 536 µM)
